Publication PMC8773446, “Comparative Analysis of Three Trypanosomatid Catalases of Different Origin” (Antioxidants, 2021)

Key:
Settings in all cases: 15 mM H2O2, 50 mM potassium phosphate pH 7, 1 min preincubation; read-out: 3-AT IC50
L. pyrrhocoris catalase = L. pyrrhocoris catalase (Leptomonas pyrrhocoris, UniProt A0A0M9FX30); experiment: biochemical
Experimental: (§1) The enzymatic inhibition was measured with 15 mM H2O2 and 50 mM potassium phosphate, pH 7. The enzyme was incubated with different concentrations of inhibitors (KCN or 3-amino-1,2,4-triazole, hereafter denoted as 3-AT, both from MilliporeSigma) for one minute, then the substrate was added and the residual activity was measured at 240 nm for 2 min [56]. All measurements were performed in triplicate.

[1] = molecular target: V. ingenoplastis catalase; assay type: biochemical, Vickermania ingenoplastis
Experimental: as §1

[2] = molecular target: Blastocrithidia sp. catalase; assay type: biochemical
Experimental: as §1

L. pyrrhocoris catalase, sequence (A0A0M9FX30 entry or part of it): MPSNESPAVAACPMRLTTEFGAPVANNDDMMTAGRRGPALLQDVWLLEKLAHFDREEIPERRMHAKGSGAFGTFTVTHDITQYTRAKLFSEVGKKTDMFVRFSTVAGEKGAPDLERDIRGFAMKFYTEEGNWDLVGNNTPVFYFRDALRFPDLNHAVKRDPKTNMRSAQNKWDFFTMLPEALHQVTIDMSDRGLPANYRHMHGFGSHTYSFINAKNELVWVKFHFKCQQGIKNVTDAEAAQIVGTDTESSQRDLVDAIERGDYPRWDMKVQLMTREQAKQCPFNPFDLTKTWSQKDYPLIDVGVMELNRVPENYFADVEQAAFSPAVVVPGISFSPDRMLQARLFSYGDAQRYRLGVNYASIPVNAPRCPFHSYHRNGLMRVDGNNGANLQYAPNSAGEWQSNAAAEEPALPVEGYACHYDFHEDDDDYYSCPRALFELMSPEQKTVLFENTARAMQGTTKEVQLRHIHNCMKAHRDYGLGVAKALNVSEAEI

Nc1nc[nH]n1 [3-AT, 3-amino-1,2,4-triazole]
IC50 (L. pyrrhocoris catalase): 10.4 mM
IC50 [1]: 11.4 mM
IC50 [2]: 15.6 mM
